{"source": "patent US20250255825A1", "about": "“POLYMER-LIPID NANOCOMPLEX FOR ENHANCED AQUEOUS SOLUBILISATION AND ABSORPTION OF HYDROPHOBIC ACTIVE COMPOUNDS” (priority 2019, published 2025)", "origin": "cited, not measured here", "key": {"[1]": {"settings": "partition coefficient octanol/water"}, "[2]": {"test_system": "malaria parasitaemia in the blood", "settings": "reported value for un-formulated LUM"}, "[3]": {"experiment": "not given", "remark": "listed apart in the source"}}, "note": "Where two headings read alike, the source gives them in different places."}
{"smiles": "C=C(C)[C@@H]1CCC(C)=C[C@H]1c1c(O)cc(CCCCC)cc1O", "note": "[Cannabidiol]", "values": [{"measurement": "bioavailability", "setting": "inhalation", "result": "11-45%"}, {"measurement": "bioavailability", "setting": "orally", "result": "13-19%"}]}
{"smiles": "CCCCN(CCCC)CC(O)c1cc(Cl)cc2c1-c1ccc(Cl)cc1/C2=C/c1ccc(Cl)cc1", "note": "(racemic) [Lumefantrine]", "values": [{"measurement": "Log P", "setting": "[1]", "result": 9}, {"measurement": "protein bound", "setting": "plasma proteins", "result": 99.7, "unit": "%"}, {"measurement": "effective dose (ED90) to clear 90% of parasitaemia in the blood", "setting": "[2]", "result": 12.01, "unit": "mg/kg"}, {"measurement": "half-life (T½)", "setting": "[3]; in vivo", "result": "96 to 120", "unit": "h"}, {"measurement": "highest concentration (Cmax) in the blood", "setting": "[3]; orally administered", "result": 7000, "unit": "ng/mL"}, {"measurement": "time to reach the highest concentration (Tmax)", "setting": "[3]; orally administered", "result": "about 6 hours"}]}
